In patent US4497802A, “N-Acyl glycopeptide derivatives” (Eli Lilly and Company, priority 1983, dated 1985):
Where two headings read alike, the source gives them in different places.

What was measured:
Staphylococcus aureus = assay: ED50 in experimentally infected mice; type: in vivo; details: mice infected with Staphylococcus aureus; administered subcutaneously 1 and 4 hours postinfection
Streptococcus Group 9960 = assay: MIC, standard agar-dilution assay; type: cell-based
[1] = test system: Streptococcus pyogenes C203; assay: MIC, standard agar-dilution assay; type: cell-based
[2] = test system: Staphylococcus aureus X1.1; assay: MIC, standard agar-dilution assay; type: cell-based
[3] = test system: Streptococcus Group D X66; assay: MIC, standard agar-dilution assay; type: cell-based
[4] = test system: Staphylococcus epidermidis EPI1; type: cell-based
[5] = test system: Staphylococcus aureus V41; assay: MIC, standard agar-dilution assay; type: cell-based
[6] = test system: Staphylococcus epidermidis EPI2; assay: MIC, standard agar-dilution assay; type: cell-based
[7] = test system: Streptococcus pneumoniae Park I; type: cell-based; details: agar dilution
[8] = test system: Staphylococcus aureus X400; assay: MIC, standard agar-dilution assay; type: cell-based; details: Staphylococcus aureus X400, methicillin-resistant strain
[9] = test system: Staphylococcus aureus S13E; type: cell-based; details: agar dilution
[10] = test system: Haemophilus influenzae C.L.; assay: MIC, standard agar-dilution assay; type: cell-based; details: ampicillin-sensitive strain
[11] = test system: Haemophilus influenzae 76; assay: MIC, standard agar-dilution assay; type: cell-based; details: Haemophilus influenzae 76, ampicillin-resistant strain
[12] = Streptococcus Group 9960, agar dilution
[13] = Streptococcus pyogenes C203, agar dilution
[14] = Staphylococcus aureus X1.1, agar dilution
[15] = Streptococcus Group D X66, agar dilution
[16] = Staphylococcus epidermidis EPI1, agar dilution
[17] = Staphylococcus aureus V41, penicillin-resistant strain, agar dilution

Substance | ED50 (Staphylococcus aureus) [mg/kg × 2] | MIC (Streptococcus Group 9960; [12]) [µg/mL] | MIC [1, 13] [µg/mL] | MIC [2, 14] [µg/mL] | MIC [3, 15] [µg/mL] | MIC [4, 16] [µg/mL] | MIC [5, 17] [µg/mL] | MIC [6] [µg/mL] | MIC [7] | MIC [8] [µg/mL] | MIC [9] [µg/mL] | MIC [10] | MIC [11] | MIC (Streptococcus Group 9960) [µg/mL] | MIC [1] [µg/mL] | MIC [2] [µg/mL] | MIC [3] [µg/mL] | MIC [4] [µg/mL] | MIC [5] [µg/mL]
N-(L-phenylalanyl)A35512B [Example 2] | 5.87 | 4 | 2 | 4 | 4 | 4 | 4 | 8 | 4 µg/mL | 8 | 4 |  |  |  |  |  |  |  | 
N--(3,5-dichlorobenzoyl)A35512B [Example 11] | 11.8 | 2 | 1 | 8 | 4 | 4 | 4 | 16 | 1 µg/mL | 8 | 8 | -- (Compound not active at less than 128 mcg/ml) | -- (Compound not active at less than 128 mcg/ml) |  |  |  |  |  | 
N--(11-aminoundecanoyl)A35512B [Example 7] | 4.5 | 4 | 2 | 4 | 4 | 8 | 4 | 16 | 4 µg/mL | 8 | 4 | -- (Compound not active at less than 128 mcg/ml) | -- (Compound not active at less than 128 mcg/ml) |  |  |  |  |  | 
N--(11-aminoundecanoyl)A35512B pseudoaglycone [Example 15] |  | 2 | 1 | 1 | 2 | 2 | 1 | 2 | -- (Compound not active at less than 128 mcg/ml) | 1 | 1 | -- (Compound not active at less than 128 mcg/ml) | -- (Compound not active at less than 128 mcg/ml) |  |  |  |  |  | 
N--(D-phenylglycyl)A35512B [Example 5] | 14.4 | 4 | 2 | 4 | 8 | 4 | 4 | 8 | 4 µg/mL | 8 | 8 |  |  |  |  |  |  |  | 
N--(L-phenylalanyl)A47934 [Example 24] | < 0.31 | 1 | 0.25 | 0.06 | 0.5 | 0.125 | 0.06 | 0.25 | 0.06 µg/mL | 0.25 | 0.06 | 4 µg/mL | 4 µg/mL |  |  |  |  |  | 
N--(nonanoyl)A35512B [Example 8] | 11.34 | 2 | 2 | 2 | 4 | 2 | 2 | 4 | 4 µg/mL | 2 | 2 |  |  |  |  |  |  |  | 
N--(nonanoyl)A35512B pseudoaglycone [Example 13] |  | 2 | 2 | 2 | 4 | 2 | 2 | 4 | 4 µg/mL | 2 | 2 | -- (Compound not active at less than 128 mcg/ml) | -- (Compound not active at less than 128 mcg/ml) |  |  |  |  |  | 
N--[(1-tetrazole)acetyl]A35512B [Example 10] | 5.7 | 8 | 2 | 4 | 8 | 4 | 4 | 16 | 4 µg/mL | 8 | 4 | -- (Compound not active at less than 128 mcg/ml) | -- (Compound not active at less than 128 mcg/ml) |  |  |  |  |  | 
N--[(3-sydnone)acetyl]A35512B [Example 12] | 10.97 |  |  |  |  |  |  | 16 | 2 µg/mL | 16 | 8 |  |  | 8 | 2 | 4 | 8 | 8 | 8
N--[N--(hexanoyl)-L-tryptophyl]A35512B [Example 3] | 10.84 | 2 | 1 | 4 | 4 | 8 | 8 | 8 | 1 µg/mL | 8 | 4 |  |  |  |  |  |  |  | 
N--[N--(t-Boc)--11-aminoundecanoyl)A35512B [Example 6] |  | 4 | 1 | 2 | 2 | 8 | 4 | 8 | 1 µg/mL | 4 | 4 |  |  |  |  |  |  |  | 
N--[N--(t-Boc)--11-aminoundecanoyl]A35512B pseudoaglycone [Example 14] |  | 8 | 4 | 8 | 4 | 4 | 8 | 16 | 4 µg/mL | 8 | 8 | -- (Compound not active at less than 128 mcg/ml) | -- (Compound not active at less than 128 mcg/ml) |  |  |  |  |  | 
N--[N--(t-Boc)--D-phenylglycyl]A35512B [Example 4] |  | 4 | 2 | 4 | 8 | 8 | 8 | 16 | 2 µg/mL | 16 | 8 | -- (Compound not active at less than 128 mcg/ml) | -- (Compound not active at less than 128 mcg/ml) |  |  |  |  |  | 
N--[N--(t-Boc)--L-phenylalanyl)A41030A [Example 16] |  | 0.125 | 0.5 | 0.25 | 1 | 0.25 | 0.25 | 0.5 | 0.5 µg/mL | 0.5 | 0.25 | 32 µg/mL | 32 µg/mL |  |  |  |  |  | 
N--[N--(t-Boc)--L-phenylalanyl)A47934 [Example 23] |  | 2 | 0.5 | 0.125 | 1 | 0.125 | 0.125 | 0.5 | 0.125 µg/mL | 0.25 | 0.125 | 8 µg/mL | 8 µg/mL |  |  |  |  |  | 
N--[p-(dodecyloxy)phenylpropanoyl]A35512B [Example 9] | 70 | 4 | 2 | 4 | 4 | 16 | 8 | 16 | 2 µg/mL | 8 | 8 |  |  |  |  |  |  |  | 
N-[N-(tert-butoxycarbonyl)-L-phenylalanyl]-A35512B [Example 1] |  | 2 | 1 | 8 | 4 | 8 | 8 | 32 | 2 µg/mL | 16 | 8 |  |  |  |  |  |  |  | 
